The text below walks through data of US12076309B2, “Compounds for the treatment of cancers associated with human papillomavirus” (Piramal Enterprises Limited, priority 2011, dated 2024).

Assay [1] deals with SiHa (HPV 16 positive cervical cancer) cell line. Nature of the assay: SiHa human cervical cancer xenograft mouse model. The format is in vivo. The conditions noted are these: days 1-6 and 12-17, nude mice. The procedure:
In vivo efficacy of the compounds of the present invention for the treatment of HPV associated cancer was studied by using SiHa (HPV 16 positive cervical cancer) cell line.
SiHa Human Cervical Cancer Xenograft Mouse Model
Animals used: Nude Nu/J, Homozygous for FOXn1(Nu) male mice, 4 to 6 weeks old, weighing 22 to 25 g (Harlan Laboratories, US). Animals were housed in animal isolator under specified pathogen-free conditions maintained at 22 to 25° C. and 55 to 75% humidity, with a 12-hour light/12-hour dark cycle. The mice were acclimatized for a period of seven days before experimentation. Animals were handled in a laminar flow hood. All food and water was autoclaved.
The adherent SiHa cells (SiHa cell line—ATCC—HBT 35) were harvested using Trypsin-EDTA solution and suspension was centrifuged at 800 rpm for 5 minutes. The supernatant was removed and the cell pellet was re-suspended in 1 mL serum-free MEM medium. […]
Following parameters were observed during treatment: • 1. […] Tumor was measured 2-3 days apart, using vernier caliper.
Tumor volume in mm^3 was calculated using the formula for a prolate ellipsoid: Tumor volume (mm^3)=Length (mm)×[Breadth (mm)^2]×0.5 • assuming specific gravity of tumor as 1 and π as 3
Treated to control ratio (ΔT/ΔC %) on a given day was calculated using the formula:
Growth inhibition (GI) was calculated using the formula GI on Day X=100−ΔT/ΔC% on Day X

A further assay concerns E6. Nature of the assay: Western blot of E6 in treated SiHa cells. The format is cell-based, Human papillomavirus. The conditions noted are these: 50 μg/mL, hydrochloride. On the procedure: Materials and Methods: Two cervical cancer cell lines SiHa and HeLa (ATCC), positive for HPV genome were used for evaluation of Compound A and Compound B. The cell lines were transfected with a plasmid vector expressing p53 protein fused with a fluorescent protein EGFP using lipofectamine (Invitrogen, CA, USA). After 48 h of transfection the cells were maintained for 30-45 days in DMEM (Sigma Aldrich, catalogue no. D5546) supplemented with 10% FBS and 800 μg/mL Geneticin (Gibco BRL Life Technologies, Inc) for 30-45 days. The stably expressing cells were expanded and evaluated for the presence of fusion construct under fluorescent microscopy. After 24 h of transfection, the cells were treated separately with Compound A and Compound B (henceforth referred to as treated cells) for 24 h. Cells were harvested and were used for analysis of status of E6, E7, p53 by western blot and by RT-PCR. Cells not treated with the Compound A and Compound B (henceforth referred to as untreated cells) were used as controls. HPV negative C33A cell was used as negative control. The terms fresh medium and culture medium refer to DMEM (catalogue no. D5546).
To prepare whole cell extracts for Western blot, the treated cells were lysed in lysis buffer (50 mM Tris-HCl (pH 7.4), 1% NP-40, 40 mM NaF, 10 mM NaCl, 10 mM Na3VO4, 1 mM phenylmethylsulfonyl fluoride, and 10 mM dithiothreitol and 1 μg/ml each of leupeptin and aprotinin). The cell lysates (50 μg) were resolved by SDS-PAGE and the separated proteins (E6, E7 and p53) were transferred to polyvinylidene difluoride membrane (PVDF) by wet transfer method using Bio-Rad electro-transfer apparatus. After blocking with 10% non-fat milk in Tris buffered saline containing 0.2% Tween-20, the membrane was incubated with the primary antibody, followed by HRP-conjugated secondary antibody. Proteins were visualized by 3, 3′-Di amino benzidine (DAB) method. Similar procedure was followed for untreated cells.
The following antibodies were used for western blot with the indicated dilutions.

Take `CN1CC[C@@H](c2c(O)cc(O)c3c(=O)cc(-c4ccccc4Cl)oc23)[C@@H]1CO.Cl` [Compound A, (+)-trans-2-(2-Chlorophenyl)-5,7-dihydroxy-8-(2-hydroxymethyl-1-methyl-pyrrolidin-3-yl)-chromen-4-one hydrochloride]: in assay [1] (35 mg/kg once daily intraperitoneally), the tumor growth inhibition result is on record as “significant tumor growth inhibition”. For the same compound, the “expression of E6 (Western blot)” value in the assay on E6 is listed as “down regulated”; in the assay on E6 (listed as compound A), “significant downregulation of expression”.

Consider `CN1CC[C@@H](c2c(O)cc(O)c3c(=O)cc(-c4ccc(C(F)(F)F)cc4Cl)oc23)[C@@H]1CO.Cl` [Compound B, (+)-trans-2-(2-chloro-4-trifluoromethyl-phenyl)-5,7-dihydroxy-8-(2-hydroxymethyl-1-methyl-pyrrolidin-3-yl)-chromen-4-one hydrochloride], for which the tumor growth inhibition result in assay [1] (200 mg/kg once daily p.o.) is reported as “significant tumor growth inhibition”. The “expression of E6 (Western blot)” value in the assay on E6 is “down regulated”; with E6 (listed as compound B), “significant downregulation of expression”.
